Drawing on a melting point compilation (Tetko et al.), this text covers melting point for 122 compounds.

Molecules are shown by their SMILES.

By melting point is commonly meant the temperature of the solid-liquid transition. In turn, `N#CCC(=O)c1c[nH]c2cc(Cl)ccc12` showed a melting point of 293 to 295 °C.
Under `O=Cc1c[nH]nc1-c1cccnc1` stands 208 to 210 °C.
Under `O=C(O)C(=O)Cc1cccs1` stands 163 to 165 °C; under `O=S(=O)(Cl)c1ccc2nc(Cl)c(Cl)nc2c1`, 88 to 90 °C; under `NC(=O)C1CCCCN1C(=O)CCl` (configuration not stated), 149 to 151 °C.
Under `O=C(O)CCNC(=O)c1ccccc1Cl` stands 82 to 84 °C.
Compound `Nc1cc(-c2cccc(F)c2F)n[nH]1` gave a melting point of 117 to 119 °C.
Under `CCOc1ccc(Br)cc1S(=O)(=O)Nc1ccc(N)cc1` stands 77 to 79 °C.
Under `Cc1c(NC(=O)CSCC(=O)O)c(=O)n(-c2ccccc2)n1C` stands 180 to 182 °C; under `NS(=O)(=O)c1cccc(C(=O)O)c1`, 238 to 240 °C.
`Nc1cccc(C2SCCCS2)c1` registered a melting point of 140 to 142 °C.
As to `O=C1NCCCCC1Oc1ccc(Br)cc1` (configuration not stated), the melting point was 176 to 178 °C.
The compound `CCCC(C)NC(=O)C(C)Cl` (configuration not stated) showed a melting point of 51 to 53 °C.
The compound `CNc1nc2ccccc2o1` came in with a melting point of 99 to 101 °C.
With `O=C(O)CSCc1nc2scc(-c3cccs3)c2c(=O)[nH]1`, the melting point lay within 148 to 150 °C.
Under `CSc1nccn1-c1ccc(C(=O)O)cc1` stands 296 to 298 °C; under `Clc1cccc2c1NCC2`, 29 to 31 °C.
`Cc1cccc2c1OCC2=O` came in with a melting point of 83 to 85 °C.
In turn, `O=C(CC(=O)Nc1ccccc1)Nc1ccccc1` registered a melting point of 220 to 222 °C.
`CCOc1cc(-c2ccccc2)sc1C(=O)O`: the melting point was in the range of 174 to 176 °C.
Under `O=C(O)c1csc(-c2ccccc2Cl)n1` stands 192 to 194 °C.
Under `Cc1nc2sc(C(=O)O)c(C)c2c(=O)[nH]1` stands 388 to 390 °C; under `O=C(CS)Nc1ccccn1`, 93 to 95 °C; under `COc1ccc(-c2cc(CBr)on2)cc1`, 88 to 90 °C.
With `NS(=O)(=O)NCc1ccccc1`, the melting point lay within 107 to 109 °C.
`CSc1ncc(C(=O)O)n1-c1ccccc1` gave a melting point of 206 to 208 °C.
Compound `COc1ccccc1C(C)=CC(=O)O` gave a melting point of 81 to 83 °C.
For `Cc1nn(CC(C)C)c(C)c1CCC(=O)O`, the melting point was 80 to 90 °C.
Under `CCOC(=O)C(=O)CC(=O)c1ccc(Cl)cc1` stands 62 to 64 °C; under `Oc1ccccc1-c1nc(CCl)no1`, 76 to 78 °C; under `NC(=O)Cn1ccc([N+](=O)[O-])n1`, 159 to 161 °C.
`Nc1ccc(S(=O)(=O)Nc2cccc(C(F)(F)F)c2)cc1` gave a melting point of 113 to 115 °C.
Under `c1ccc(NCc2cccc3ccccc23)cc1` stands 54 to 56 °C.
Under `NS(=O)(=O)c1cccc(N2C(=O)C=CC2=O)c1` stands 220 to 222 °C; under `O=C(O)c1cc(S(=O)(=O)N2CCOCC2)ccc1Br`, 188 to 190 °C.
Under `CCOc1ccc(S(=O)(=O)NCC(=O)O)cc1` stands 139 to 141 °C.
For `O=C1CCC(Cc2cccc(O)c2)O1` (configuration not stated), the melting point was in the range of 102 to 104 °C.
Compound `Cc1cc(Oc2ncccn2)ccc1N` showed a melting point of 132 to 134 °C.
Under `Cc1oc(-c2ccco2)nc1CC(=O)O` stands 176 to 178 °C; under `N#CCCN(C(=O)CCl)c1ccc(F)cc1`, 85 to 87 °C; under `CCOC(=O)C(=O)CC(=O)c1cc(Cl)ccc1Cl`, 76 to 78 °C.
Under `CC1CCC(NC(=O)OC(C)(C)C)(C(=O)O)CC1` (configuration not stated) stands 151 to 153 °C.
Under `O=C(O)c1cnc(-c2ccccc2)s1` stands 187 to 189 °C; under `Cc1cc2c(cc1C)OC(C(=O)O)C2` (configuration not stated), 149 to 151 °C.
`N#CCc1ccc([N+](=O)[O-])cc1Br` returned a melting point of 66 to 68 °C.
For the compound `COc1cc(C(C)=O)ccc1OC(F)F`, the melting point is 65 to 67 °C.
Under `CCC1C(=O)NCCN1C(N)=S` (configuration not stated) stands 216 to 218 °C; under `NCc1ccc(C(=O)NCC(N)=O)cc1`, 199 to 201 °C.
Under `Cc1coc(C=CC(=O)O)n1` stands 103 to 105 °C.
Take `COc1ccc(-c2n[nH]c(S)nc2=O)cc1`: the melting point was in the range of 284 to 286 °C.
In the case of `O=C(O)CNCC1CC1`, the melting point lay in the range of 222 to 224 °C.
Under `Cc1nn(-c2ccc(F)cc2F)c(C)c1C(=O)O` stands 229 to 231 °C; under `CCOC(=O)C(=O)c1c(-c2ccc(C)cc2)nc2ccccn12`, 116 to 118 °C.
Under `COc1cc(C=O)cc(Cl)c1OC` stands 56 to 58 °C; under `CC(C)NC(=O)NCc1ccc(C(=O)O)cc1`, 168 to 170 °C.
Under `Cc1ccc(S(=O)(=O)OCC2CCOCO2)cc1` (configuration not stated) stands 63 to 65 °C; under `COc1cccc(-c2noc(Cl)n2)c1`, 56 to 58 °C; under `O=S(=O)(c1ccc(F)cc1F)N1CCNCC1`, 93 to 95 °C.
Compound `Cc1nc(-c2ccc(Cl)cc2)sc1C(C)O` (configuration not stated) showed a melting point of 119 to 121 °C.
Turning to `COc1cc(C#N)cc(Cl)c1OC(C)C`, the melting point was 84 to 86 °C.
In turn, `NNC(=O)CC1CCS(=O)(=O)C1` (configuration not stated) returned a melting point of 104 to 106 °C.
`Nc1ccn(Cc2ccncc2)n1` yielded a melting point of 122 to 124 °C.
Compound `Cc1ccc(O)c(N)n1` gave a melting point of 145 to 147 °C.
`CN1CCCN(c2ccc(C#N)cc2Cl)CC1` came in with a melting point of 40 to 42 °C.
`Cn1cc(C(=O)O)c(C(F)F)n1` gave a melting point of 199 to 201 °C.
The compound `Cc1ccc(C23CC4CC(CC(C(=O)O)(C4)C2)C3)cc1` had a melting point of 174 to 176 °C.
Under `NCCC(=O)Nc1ccccc1` stands 62 to 64 °C; under `Nc1ncc(C(=O)O)cc1Br`, 299 to 301 °C; under `OCc1nc(-c2ccco2)no1`, 123 to 125 °C.
Under `BrC12CC3CC(C1)CC(Br)(C3)C2` stands 108 to 110 °C; under `Cn1cc(S(=O)(=O)N2CCOCC2)cc1C(=O)NC(=O)CCl`, 229 to 231 °C.
In turn, `N#Cc1cnn(-c2ccncc2)c1N` displayed a melting point of 273 to 275 °C.
Under `Cc1ccc(C)c2sc(N)nc12` stands 151 to 153 °C; under `CCc1ccc(-c2ccc(C=O)o2)cc1`, 45 to 47 °C.
For `COc1ccc(CCCCCC(=O)O)cc1`, the melting point was in the range of 46 to 48 °C.
Under `O=C(O)c1cc2c(cc1O)CCCC2` stands 170 to 172 °C; under `O=C(O)C1CCCN1C(=O)Cc1cccs1` (configuration not stated), 139 to 141 °C; under `CC(NC(=O)OCc1ccccc1)C(=O)N1CCNC(=O)C1` (configuration not stated), 154 to 156 °C.
Under `Clc1ccc(-c2ccccc2)nn1` stands 157 to 159 °C.
`Oc1ccnc2c(OC(F)(F)F)cccc12` displayed a melting point of 145 to 147 °C.
Under `CC(NC(=O)CCl)c1ccc(F)cc1` (configuration not stated) stands 71 to 73 °C; under `O=C1CCC(c2ccccc2)CCN1` (configuration not stated), 194 to 196 °C.
Take `ClCc1nc(-c2cc(Br)cs2)no1`: the melting point was 56 to 58 °C.
Consider `O=C(O)c1cc(S(=O)(=O)Cl)c(F)cc1F`, for which the melting point lay in the range of 129 to 131 °C.
Under `O=C(O)c1cccc(S(=O)(=O)N2CCc3ccccc32)c1` stands 174 to 176 °C; under `O=C(O)C(Sc1ccc(F)c(Cl)c1)c1ccccc1` (configuration not stated), 74 to 76 °C.
For the compound `O=C(O)Cc1csc(-c2ccc(F)cc2)n1`, the melting point was 129 to 131 °C.
`COC(=O)c1c[nH]c(C)n1`: the melting point was 136 to 138 °C.
Under `COC(=O)c1ccc2ccccc2c1O` stands 75 to 77 °C; under `O=Cc1cc2c(cc1O)OCO2`, 114 to 116 °C; under `O=C(O)CSCC(=O)Nc1ccc(F)cc1`, 125 to 127 °C.
Under `N#Cc1cccc(COc2ccc(N)cc2F)c1` stands 69 to 71 °C; under `Cc1csc(N2CCCC(C(=O)O)C2)n1` (configuration not stated), 147 to 149 °C.
Compound `COc1ccc2c(c1)C(=O)CCN2` returned a melting point of 114 to 116 °C.
Under `Cc1nc(Cl)c2c(CC(C)C)csc2n1` stands 60 to 62 °C; under `NNC(=O)CC1CCCC1`, 82 to 84 °C.
Under `O=C(O)c1nn(-c2ccccc2I)cc1O` stands 198 to 200 °C; under `Cc1sc(C(N)=O)cc1S(=O)(=O)Cl`, 122 to 124 °C; under `O=C(NCCS(=O)(=O)Cl)OCc1ccccc1`, 39 to 41 °C.
Under `NC1=NN(c2c(Cl)cc(Cl)cc2Cl)C(=O)C1` stands 218 to 220 °C; under `Nc1nccnc1CO`, 115 to 117 °C.
Take `O=C(O)c1cnc(Cc2ccccc2)s1`: the melting point was in the range of 199 to 201 °C.
Under `Cc1nnc(S)n1C1CCCC(C)C1` (configuration not stated) stands 129 to 131 °C; under `Cc1cc(C(=O)O)cc(C)c1OC(F)F`, 189 to 191 °C; under `CCOC(=O)Cn1ncc2ccccc21`, 34 to 36 °C.
`CCOc1ccc(S(=O)(=O)N(CC)CC)cc1N` showed a melting point of 119 to 121 °C.
`CC(C)(O)c1ccc(Br)cc1` gave a melting point of 42 to 44 °C.
For the compound `Cc1nn(C(C)(C)C)c2nc(C(C)C)cc(C(=O)O)c12`, the melting point was 121 to 123 °C.
Under `O=C(Cc1ccc(Cl)cc1)N1CCNCC1` stands 105 to 107 °C; under `COc1nc(O)c2ccccc2n1`, 228 to 230 °C.
On to `O=C(CCl)Nc1ccccc1-c1ccccc1`, for which the melting point was in the range of 103 to 106 °C.
Under `O=C(O)C1CC2CCCCC2N1C(=O)OCC1c2ccccc2-c2ccccc21` (configuration not stated) stands 169 to 171 °C.
`CCCn1ncc(C(=O)O)c1C1CC1` displayed a melting point of 119 to 121 °C.
Under `Ic1ccc2ncccc2c1` stands 86 to 88 °C.
On to `CC(C)(C)Oc1ccc(C(=O)O)cc1`, for which the melting point lay within 139 to 141 °C.
Consider `CC(Cl)c1nnc(-c2ccc(F)cc2)o1` (configuration not stated), for which the melting point was in the range of 67 to 69 °C.
Under `Cc1cc(C(=O)CCl)c(C)n1-c1cc(Cl)cc(Cl)c1` stands 113 to 115 °C.
`CC(NS(=O)(=O)c1cnn(C)c1)C(=O)O` (configuration not stated) registered a melting point of 169 to 171 °C.
Under `Cn1ccnc1C(N)c1ccc(Cl)cc1` (configuration not stated) stands 45 to 49 °C; under `CC(C)(C)CCS(=O)(=O)Cl`, 33 to 35 °C; under `NC(=O)c1cccc(O)c1`, 163 to 165 °C.
Under `Sc1nc2cc(Cl)cnc2[nH]1` stands 352 to 354 °C.
